Results: patent publication US20110171300A1, “DELTA 9 TETRAHYDROCANNABINOL DERIVATIVES” ([…] LIMITED, priority 2007, published 2011)

Tests used:
[1] = air; cited from earlier work
[2] = Stability to light and air at ambient temperature; assay type: physicochemical

In the case of CCCCCc1cc(O)c2c(c1)OC(C)(C)[C@@H]1CCC(C)=C[C@@H]21 [Δ9-THC, Δ9-tetrahydrocannabinol], the “Stability at room temperature” value [1] is listed as “relatively unstable”.

With CCCCCc1cc2c(c(OS(=O)(=O)C[C@]34CCC(CC3=O)C4(C)C)c1)[C@@H]1C=C(C)CC[C@H]1C(C)(C)O2 [Example 1, Δ9-THC (1S)-(+)-Camphorsulfonate] the Stability [2] was “Stable to light and air at ambient temperature”.

With CCCCCc1cc2c(c(OS(=O)(=O)c3cccs3)c1)[C@@H]1C=C(C)CC[C@H]1C(C)(C)O2 [Example 2, Δ9-THC 2-thiophene sulfonate] the Stability [2] was “Stable to light and air at ambient temperature”.

With CCCCCc1cc2c(c(OS(=O)(=O)CCCCl)c1)[C@@H]1C=C(C)CC[C@H]1C(C)(C)O2 [Example 4, Δ9-THC 3-chloropropyl sulfonate] the Stability [2] was “Stable to light and air at ambient temperature”.

With CCCCCc1cc2c(c(OS(=O)(=O)CCC)c1)[C@@H]1C=C(C)CC[C@H]1C(C)(C)O2 [Example 3, Δ9-THC n-propyl sulfonate] the Stability [2] was “Stable to light and air at ambient temperature”.
